# Molecular target: T1, E. coli DdlB enzyme (D-alanine:D-alanine ligase) (Escherichia coli, UniProt P07862)
# T1 construct: made in house; host or cells: E. coli
# Assay: biochemical
# Settings: fragment library screening; tested concentration 1.7 mM; read-out: DdlB RA
row,SMILES,remaining activity at 1700 µM [%]
1,Cc1cc(-c2ccc(Cl)cc2)nc2cc(C(=O)O)nn12 [Compound D717-0161],88

# Same assay, conditions: fragment library screening; tested concentration 1.8 mM; read-out: DdlB RA
row,SMILES,remaining activity at 1800 µM [%]
1,CCNc1cc(N2CCC(CCC(=O)O)CC2)ncn1 [Compound P207-8919],83

# Same assay, conditions: fragment library screening; tested concentration 2.0 mM; read-out: DdlB RA
row,SMILES,remaining activity at 2000 µM [%]
1,O=C(O)c1ccccc1C(=O)NCc1ccccc1 [Compound K786-0839],98

# Same assay, conditions: residual activity of DdlB, fragment library screening, tested concentration 3.0 mM; read-out: DdlB RA
row,SMILES,remaining activity at 3000 µM [%]
1,Cn1nc(C(=O)O)c2c1CCOC2 [Compound P207-8979],88
2,O=C(Nc1nnc[nH]1)C1CCC1 [Compound P774-4606],94

# Same assay, conditions: residual activity of DdlB, fragment library screening, tested concentration 3.3 mM; read-out: DdlB RA
row,SMILES,remaining activity at 3300 µM [%]
1,CCn1cnnc1CC1CCNC1 (stereo not drawn) [Compound P936-0678],90
2,CCOc1ncccc1CN [Compound S055-1650],89

# Same assay, conditions: residual activity; tested concentration 1.6 mM; read-out: DdlB RA
row,SMILES,remaining activity at 1600 µM [%]
1,CN(C)Cc1cc2cc(O)c(-c3cccnc3)cc2n1C [Compound H027-0236C],84

# Same assay, conditions: residual activity; tested concentration 1.7 mM; read-out: DdlB RA
row,SMILES,remaining activity at 1700 µM [%]
1,CCN1CCN(c2ccc(NC(C)=O)c(C(=O)O)c2)CC1 [Compound F687-0683],94
2,Cc1nnc(C2CCCCN2C(=O)NC2CCCCC2)[nH]1 (stereo not drawn) [Compound M754-0764],77
3,O=C(c1ccco1)N1CCCCC1c1nnc(C2CC2)[nH]1 (stereo not drawn) [Compound M754-1192],90
4,Cc1ccccc1NS(=O)(=O)c1c[nH]c2ncccc12 [Compound P633-0038],89

# Same assay, conditions: residual activity; tested concentration 1.8 mM; read-out: DdlB RA
row,SMILES,remaining activity at 1800 µM [%]
1,Cc1nc(O)[nH]c(=O)c1S(=O)(=O)N1CCCCC1 [Compound D668-0306],89
2,CCS(=O)(=O)N1CCCc2cc(NC(C)=O)ccc21 [Compound G504-0524],95
3,Cc1cccc(C(=O)N2CCCCC2c2nnc(C)[nH]2)c1 (stereo not drawn) [Compound M754-0809],89

# Same assay, conditions: residual activity; tested concentration 1.9 mM; read-out: DdlB RA
row,SMILES,remaining activity at 1900 µM [%]
1,Cc1nc(O)[nH]c(=O)c1S(=O)(=O)NC(C)(C)C [Compound D668-0207],85
2,COc1ccc(CNc2ccccc2C(=O)O)cc1 [Compound K783-0843],101
3,O=C(O)c1ccccc1NCc1ccccc1Cl [Compound K783-0963],95
4,O=C(Cc1c[nH]c2ncccc12)NCc1ccccc1 [Compound M508-0504],82
5,CCNC(=O)N1CCC(c2noc(-c3ccccc3)n2)C1 (stereo not drawn) [Compound S069-0392],94

# Same assay, conditions: residual activity; tested concentration 2.0 mM; read-out: DdlB RA
row,SMILES,remaining activity at 2000 µM [%]
1,Cc1ccc(S(=O)(=O)N2CCc3[nH]cnc3C2)cc1 [Compound M512-0400],94
2,CCn1cc(S(=O)(=O)NC2CCCC2)c2cccnc21 [Compound P633-0557F],89
3,O=C(C1CCCN(C(=O)C2CCC2)C1)N1CCOCC1 (stereo not drawn) [Compound P773-6398],98

# Same assay, conditions: residual activity; tested concentration 2.1 mM; read-out: DdlB RA
row,SMILES,remaining activity at 2100 µM [%]
1,O=C(O)c1cc2nccc(-c3ccccc3)n2n1 [Compound D717-0041],74
2,O=C(O)C1=CC(c2cc(F)cc(F)c2)n2nnnc2N1 (stereo not drawn) [Compound J043-0061],101
3,CC(=O)N1CCCC(c2nn(C)c(=O)n2C2CCCC2)C1 (stereo not drawn) [Compound P940-4223],96
4,O=C(O)c1cc(-c2ccc3c(c2)OCO3)on1 [Compound R314-0020],114

# Same assay, conditions: residual activity; tested concentration 2.2 mM; read-out: DdlB RA
row,SMILES,remaining activity at 2200 µM [%]
1,O=C(O)c1cc(-c2ccccc2Cl)on1 [Compound D717-0173],107
2,Cn1cnc(S(=O)(=O)NC2CCCCCCC2)c1 [Compound G404-0427],91
3,CC(C)CNC(=O)Cc1c[nH]c2ncccc12 [Compound M508-0619],94
4,CCCN(C)C(=O)Cc1c[nH]c2ncccc12 [Compound M508-0627],86
5,O=C(NCc1c[nH]c2ncccc12)C1CCC1 [Compound P610-0073],90
6,CC1(CNC(=O)c2ccccc2Cl)CCOCC1 [Compound P970-0504],94
7,Cn1nccc1C(=O)N1CCC(Nc2cccnc2)C1 (stereo not drawn) [Compound S059-0159],85

# Same assay, conditions: residual activity; tested concentration 2.3 mM; read-out: DdlB RA
row,SMILES,remaining activity at 2300 µM [%]
1,CNC(=O)NCCc1c[nH]c2ncccc12 [Compound M509-0295],80
2,Cc1ccc(C(=O)N(C)CC2(C)CCOCC2)cn1 [Compound P970-1095],94

# Same assay, conditions: tested concentration 1.7 mM; read-out: DdlB RA
row,SMILES,remaining activity at 1700 µM [%]
1,COc1ccc(-c2c(Nc3cccc(C)c3)c(=O)c2=O)cc1 [Compound E470-1008],100
2,O=c1c(O)c(Nc2ccc(CN3CCCCC3)cc2)c1=O [Compound G317-0765],92
3,Cc1cccc(Cc2n[nH]c(CC(=O)NC3CCCC3)n2)c1 [Compound P496-1655],97
4,O=S(=O)(c1c[nH]c2ncccc12)N1CCc2ccccc21 [Compound P633-0115],83
5,c1cnc(-c2nc(C3CCNC3)no2)cn1 (stereo not drawn) [Compound S069-3207],95

# Same assay, conditions: tested concentration 1.8 mM; read-out: DdlB RA
row,SMILES,remaining activity at 1800 µM [%]
1,CN(Cc1ccccc1)c1c(-c2ccccc2)c(=O)c1=O [Compound E470-0301],103
2,CCN(CC)CCNc1c(-c2ccccc2)c(=O)c1=O [Compound E470-0370],94
3,O=c1c(-c2ccc(Cl)cc2)c(N2CCOCC2)c1=O [Compound E786-0171],141
4,Cc1cc2nc(COC(=O)c3ccco3)cc(=O)n2o1 [Compound G265-0750],92
5,O=C(Nc1ccc2[nH]c(=O)oc2c1)c1ccc(F)cc1 [Compound G434-0256],74
6,O=c1[nH]c2ccc(S(=O)(=O)N3CCCCC3)cc2o1 [Compound K893-0198],100

# Same assay, conditions: tested concentration 1.9 mM; read-out: DdlB RA
row,SMILES,remaining activity at 1900 µM [%]
1,O=c1c(NCc2ccccn2)c(-c2ccccc2)c1=O [Compound E470-0290],96
2,Cc1cc2nc(COC(=O)C(C)(C)C)cc(=O)n2o1 [Compound G265-0759],97
3,O=c1c(O)c(N2CCN(c3ccccc3)CC2)c1=O [Compound G317-0478],96
4,O=C(Nc1ccccc1)Nc1ccc2[nH]c(=O)oc2c1 [Compound G434-0096],75
5,CCc1cc(C2CCCN2S(=O)(=O)CC)on1 (stereo not drawn) [Compound J005-1008],98
6,Cc1cccc(Nc2ncccc2S(N)(=O)=O)c1 [Compound M784-3114],94
7,Cc1ccc(Nc2ncccc2S(N)(=O)=O)cc1 [Compound M784-3115],85

# Same assay, conditions: tested concentration 2.0 mM; read-out: DdlB RA
row,SMILES,remaining activity at 2000 µM [%]
1,CCOc1c(Nc2ccc(OC)cc2)c(=O)c1=O [Compound G317-0026],93

# Same assay, conditions: tested concentration 2.1 mM; read-out: DdlB RA
row,SMILES,remaining activity at 2100 µM [%]
1,O=c1c(-c2ccccc2)c(N2CCOCC2)c1=O [Compound E470-0468],91
2,CCOc1c(Nc2ccc(F)cc2)c(=O)c1=O [Compound G317-0061],96
3,Cc1nc2ccccc2c(O)c1S(=O)(=O)O [Compound L150-1119],90
4,Cn1ncc(N2CCC[C@@H](C(=O)O)C2)cc1=O [Compound P207-8929],92
5,CN1CCC(Oc2ncccc2C(=O)O)CC1 [Compound P391-0905],92

# Same assay, conditions: tested concentration 2.2 mM; read-out: DdlB RA
row,SMILES,remaining activity at 2200 µM [%]
1,O=c1c(O)c(N2CCc3ccccc3C2)c1=O [Compound G317-0491],90
2,CC(C)c1ccc(Nc2c(O)c(=O)c2=O)cc1 [Compound G317-0548],91
3,CCOc1c(NC2CCCCC2)c(=O)c1=O [Compound K906-2368],76
4,CCOc1c(N2CCC(C)CC2)c(=O)c1=O [Compound K906-2369],71

# Same assay, conditions: tested concentration 2.3 mM; read-out: DdlB RA
row,SMILES,remaining activity at 2300 µM [%]
1,CC(=O)c1cnc2c(C(=O)O)cnn2c1C [Compound D717-0038],104
2,O=c1c(O)c(NCCc2ccccc2)c1=O [Compound G317-0516],92
3,O=C(NC1CC(=O)N(c2cccc(F)c2)C1)C1CC1 (stereo not drawn) [Compound G856-7454],91
4,O=c1c(N2CCCC2)c(N2CCCC2)c1=O [Compound K906-4052],98

# Same assay, conditions: tested concentration 2.4 mM; read-out: DdlB RA
row,SMILES,remaining activity at 2400 µM [%]
1,O=C(O)Cn1nc(C(F)(F)F)c2c1CCCC2 [Compound F235-1104],95
2,CCOC(=O)c1ccc2oc(=O)[nH]c2c1 [Compound G373-0551],92
3,CCC(=O)Nc1ccc2[nH]c(=O)oc2c1 [Compound G434-0836],85
4,NS(=O)(=O)c1cccc2cccnc12 [Compound R005-0042],88

# Same assay, conditions: tested concentration 2.6 mM; read-out: DdlB RA
row,SMILES,remaining activity at 2600 µM [%]
1,O=c1c(O)c(NCc2ccco2)c1=O [Compound G317-0464],89
2,O=c1c(O)c(N2CCCCCC2)c1=O [Compound G317-0465],92
3,Cc1cc(Nc2c(O)c(=O)c2=O)no1 [Compound G317-0569],93
4,O=C1CC(C(=O)O)c2ccccc2N1 (stereo not drawn) [Compound K784-1648],87
5,Cc1ccc2cc(CCC(=O)O)c(O)nc2c1 [Compound P207-8939],93
6,O=C(Cc1ccccc1)NCC1CCOCC1 [Compound P970-0162],92

# Same assay, conditions: tested concentration 2.9 mM; read-out: DdlB RA
row,SMILES,remaining activity at 2900 µM [%]
1,O=C(O)Cn1ccc(=O)[nH]c1=O [Compound D702-0091],89

# Same assay, conditions: tested concentration 3.1 mM; read-out: DdlB RA
row,SMILES,remaining activity at 3100 µM [%]
1,OB(O)c1ccc2[nH]ncc2c1 [Compound H024-0113],93

# Same assay, conditions: tested concentration 3.3 mM; read-out: DdlB RA
row,SMILES,remaining activity at 3300 µM [%]
1,O=c1c(O)c(NC2CC2)c1=O [Compound G317-0511],90
